# From ChEMBL document CHEMBL1131012, “Heteroaryl analogues of AMPA. 2. Synthesis, absolute stereochemistry, photochemistry, and structure-activity relationships” (J Med Chem, 1998)
# Columns and labels:
# [1] = biological target: T1, Glutamate receptor ionotropic, AMPA (Rattus norvegicus, UniProt P19490+P19491+P19492+P19493)
# Description: Ability to inhibit the binding of [3H]AMPA radioligand to Ionotropic glutamate receptor AMPA in rat brain membranes.
# [2] = biological target: Glutamate receptor ionotropic, kainate; assay: Ability to inhibit the binding of [3H]-kainic acid radioligand to Ionotropic glutamate receptor kainate in rat brain membranes.; type: cell membranes
# [3] = biological target: T1, Glutamate receptor ionotropic, AMPA; remark: listed apart in the source
# Description: Agonist effect for Ionotropic glutamate receptor AMPA was determined from in vitro electrophysiology studies using rat cortical wedge preparation.
# Glutamate NMDA receptor = assay: Ability to inhibit the binding of [3H]CPP radioligand to N-methyl-D-aspartate glutamate receptor in rat brain membranes.; type: cell membranes
Compound,IC50 [1] [µM],IC50 [2] [µM],EC50 [3] [µM],IC50 (Glutamate NMDA receptor) [µM]
NC(Cc1c(O)noc1-c1nccs1)C(=O)O (stereo unspecified),0.094,4.9,2.3,> 100
NC(Cc1c(O)noc1-c1cccnc1)C(=O)O (stereo unspecified),> 100,> 100,> 1000,> 100
N[C@H](Cc1c(O)noc1-c1ccccn1)C(=O)O,> 100,> 100,> 100,> 100
N[C@H](Cc1c(O)noc1-c1ccccc1)C(=O)O,,,> 100,
Cc1cccc(-c2onc(O)c2CC(N)C(=O)O)n1 (stereo unspecified),> 100,> 100,> 1000,> 100
NC(Cc1c(O)noc1-c1ccc2ccccc2n1)C(=O)O (stereo unspecified),> 100,> 100,> 1000,> 100
N[C@H](Cc1c(O)noc1-c1ccco1)C(=O)O,100,> 100,> 1000,> 100
C=C(C)[C@H]1CN[C@H](C(=O)O)[C@H]1CC(=O)O [KAINIC ACID],,,,> 100

# Other lines, results leading:
IC50 [1] [µM],IC50 [2] [µM],EC50 [3] [µM],IC50 (Glutamate NMDA receptor) [µM],Compound
12,> 100,160,> 100,NC(Cc1c(O)noc1-c1ccc(Br)o1)C(=O)O (stereo unspecified)
0.19,> 100,4.5,> 100,N[C@@H](Cc1c(O)noc1-c1ccccn1)C(=O)O
5.5,,,,N[C@@H](Cc1c(-c2ccccc2)o[nH]c1=O)C(=O)O
0.57,> 100,7.4,> 100,NC(Cc1c(O)noc1-c1ccccn1)C(=O)O (stereo unspecified)
5.5,> 100,96,> 100,NC(Cc1c(O)noc1-c1ccncc1)C(=O)O (stereo unspecified)
0.15,> 100,1.7,> 100,NC(Cc1c(O)noc1-c1ccco1)C(=O)O (stereo unspecified)
0.11,> 100,0.71,> 100,N[C@@H](Cc1c(O)noc1-c1ccco1)C(=O)O
